One series addresses neprilysin (Homo sapiens, UniProt P08473). Kind of series: Inhibition of HxBP—Rh labeling of neprilysin in MUM-2B membrane proteome (competitive activity-based profiling, in-gel fluorescence). Type of series: binding. Particulars: 50 nM HxBP—Rh probe, three trials, 95% confidence limits 12-23 nM.
The target of a further series is T1, MMP-2 (Homo sapiens, UniProt P08253).
T1 sequence (P08253 110-660): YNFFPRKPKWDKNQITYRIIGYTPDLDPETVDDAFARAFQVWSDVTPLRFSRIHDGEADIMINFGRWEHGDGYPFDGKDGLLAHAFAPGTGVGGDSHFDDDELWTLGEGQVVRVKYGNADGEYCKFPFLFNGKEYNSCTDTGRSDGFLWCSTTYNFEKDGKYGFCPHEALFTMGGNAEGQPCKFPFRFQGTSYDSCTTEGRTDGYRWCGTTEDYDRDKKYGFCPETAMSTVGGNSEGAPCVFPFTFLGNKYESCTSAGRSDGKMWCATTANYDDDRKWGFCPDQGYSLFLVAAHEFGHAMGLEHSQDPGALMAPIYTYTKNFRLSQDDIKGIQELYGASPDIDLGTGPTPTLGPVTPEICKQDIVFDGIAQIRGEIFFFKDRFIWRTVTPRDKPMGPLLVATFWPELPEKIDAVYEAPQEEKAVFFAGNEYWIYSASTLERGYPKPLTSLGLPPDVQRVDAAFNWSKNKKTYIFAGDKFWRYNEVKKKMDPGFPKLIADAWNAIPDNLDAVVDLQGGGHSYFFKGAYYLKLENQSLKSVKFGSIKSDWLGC
Kind of series: Activity-based labeling of purified MMP-2 added to mouse kidney proteome. Particulars: GM6001 5 μM or TIMP-1 200 ng, HxBP—Rh 100 nM.

The target of series [1] is T2, dipeptidylpeptidase III (DPPIII) (Homo sapiens, UniProt Q9NY33).
T2 sequence (Q9NY33 1-737): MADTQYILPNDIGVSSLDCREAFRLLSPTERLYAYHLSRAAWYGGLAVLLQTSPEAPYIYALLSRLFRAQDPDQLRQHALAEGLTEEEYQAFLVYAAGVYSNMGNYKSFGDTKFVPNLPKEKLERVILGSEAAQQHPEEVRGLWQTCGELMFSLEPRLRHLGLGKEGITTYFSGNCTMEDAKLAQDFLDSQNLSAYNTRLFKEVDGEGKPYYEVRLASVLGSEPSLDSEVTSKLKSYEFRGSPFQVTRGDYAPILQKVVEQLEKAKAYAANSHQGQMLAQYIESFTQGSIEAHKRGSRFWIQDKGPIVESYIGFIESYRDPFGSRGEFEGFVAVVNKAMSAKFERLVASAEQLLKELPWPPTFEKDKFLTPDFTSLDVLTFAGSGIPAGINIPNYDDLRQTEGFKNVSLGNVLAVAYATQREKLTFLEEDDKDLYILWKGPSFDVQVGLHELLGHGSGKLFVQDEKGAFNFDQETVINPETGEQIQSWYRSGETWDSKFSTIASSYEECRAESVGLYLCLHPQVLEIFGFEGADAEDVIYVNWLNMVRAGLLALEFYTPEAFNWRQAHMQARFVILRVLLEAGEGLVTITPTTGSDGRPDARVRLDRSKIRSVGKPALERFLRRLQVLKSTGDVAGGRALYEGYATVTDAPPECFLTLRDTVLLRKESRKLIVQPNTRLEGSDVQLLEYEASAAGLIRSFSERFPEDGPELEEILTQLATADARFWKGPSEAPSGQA
As to the kind of experiment: Inhibition of HxBP—Rh labeling of dipeptidylpeptidase III in MCF7 soluble proteome.
Experimental: For labeling and detection of MPs using HxBP—Rh, the following technique can be used. […] Kidney and cancer cell proteomes, prepared as known to those having ordinary skill in the art, can be adjusted to 1 mg/ml in 50 mM Tris-HCl buffer (pH 8.0) prior to labeling. A portion of each cancer cell line proteome sample can be treated with PNGaseF (New England Biolabs) to provide deglycosylated proteomes, as known to those having ordinary skill in the art. Labeled samples can be separated by SDS-PAGE, and visualized in-gel with a Hitachi FMBio IIe flatbed scanner (Mirabio). Integrated band intensities can be calculated from several independent labeling reactions, and averaged to provide the level of each enzyme activity in each sample.
(§1) For measuring the IC50 values for MP inhibitors using HxBP—Rh, the following technique can be used. IC50 values for neprilysin, dipeptidylpeptidase III (DPPIII), and leucine aminopeptidase (LAP) can be determined using Prism Software (Graph Pad) from dose-response curves of three trials at concentrations of GM6001 ranging from 0.001-20 μM and 50 nM HxBP—Rh probe. Neprilysin, DPPIII, and LAP assays can be conducted using MUM-2B membrane, MCF7 soluble, and mouse kidney soluble proteomes, respectively.
Shown is a representative HxBP—Rh labeling (100 nM) profile of the soluble proteome from MCF-7 cells. […]

Series [2] deals with T3, leucine aminopeptidase (LAP) (Mus musculus, UniProt Q9CPY7).
T3 sequence (Q9CPY7 1-519): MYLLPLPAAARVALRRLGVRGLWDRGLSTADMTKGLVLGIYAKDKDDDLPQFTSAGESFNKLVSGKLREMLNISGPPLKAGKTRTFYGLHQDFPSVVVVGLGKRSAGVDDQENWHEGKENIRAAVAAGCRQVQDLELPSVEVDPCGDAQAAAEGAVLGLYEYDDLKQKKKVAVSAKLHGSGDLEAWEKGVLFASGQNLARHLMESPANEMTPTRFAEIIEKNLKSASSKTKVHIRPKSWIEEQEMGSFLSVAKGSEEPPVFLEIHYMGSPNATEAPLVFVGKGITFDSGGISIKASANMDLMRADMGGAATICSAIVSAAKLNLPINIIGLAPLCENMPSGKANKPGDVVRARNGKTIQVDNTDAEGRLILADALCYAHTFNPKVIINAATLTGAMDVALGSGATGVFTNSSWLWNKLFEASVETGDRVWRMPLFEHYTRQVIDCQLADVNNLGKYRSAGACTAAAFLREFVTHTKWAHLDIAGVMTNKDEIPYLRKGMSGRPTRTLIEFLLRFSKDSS
As to the kind of experiment: Inhibition of HxBP—Rh labeling of leucine aminopeptidase in mouse kidney soluble proteome.
Experimental: (§2) For labeling and detection of MPs using HxBP—Rh, the following technique can be used. […] Kidney and cancer cell proteomes, prepared as known to those having ordinary skill in the art, can be adjusted to 1 mg/ml in 50 mM Tris-HCl buffer (pH 8.0) prior to labeling. […] Labeled samples can be separated by SDS-PAGE, and visualized in-gel with a Hitachi FMBio IIe flatbed scanner (Mirabio). Integrated band intensities can be calculated from several independent labeling reactions, and averaged to provide the level of each enzyme activity in each sample.
as §1
(§3) Right panels show the concentration-dependence of inhibition of HxBP—Rh labeling of by GM6001 (each data point corresponds to the average of three independent trials and is presented as a percentage of control reactions conducted without GM6001).

Chain of neprilysin (P08473 whole entry): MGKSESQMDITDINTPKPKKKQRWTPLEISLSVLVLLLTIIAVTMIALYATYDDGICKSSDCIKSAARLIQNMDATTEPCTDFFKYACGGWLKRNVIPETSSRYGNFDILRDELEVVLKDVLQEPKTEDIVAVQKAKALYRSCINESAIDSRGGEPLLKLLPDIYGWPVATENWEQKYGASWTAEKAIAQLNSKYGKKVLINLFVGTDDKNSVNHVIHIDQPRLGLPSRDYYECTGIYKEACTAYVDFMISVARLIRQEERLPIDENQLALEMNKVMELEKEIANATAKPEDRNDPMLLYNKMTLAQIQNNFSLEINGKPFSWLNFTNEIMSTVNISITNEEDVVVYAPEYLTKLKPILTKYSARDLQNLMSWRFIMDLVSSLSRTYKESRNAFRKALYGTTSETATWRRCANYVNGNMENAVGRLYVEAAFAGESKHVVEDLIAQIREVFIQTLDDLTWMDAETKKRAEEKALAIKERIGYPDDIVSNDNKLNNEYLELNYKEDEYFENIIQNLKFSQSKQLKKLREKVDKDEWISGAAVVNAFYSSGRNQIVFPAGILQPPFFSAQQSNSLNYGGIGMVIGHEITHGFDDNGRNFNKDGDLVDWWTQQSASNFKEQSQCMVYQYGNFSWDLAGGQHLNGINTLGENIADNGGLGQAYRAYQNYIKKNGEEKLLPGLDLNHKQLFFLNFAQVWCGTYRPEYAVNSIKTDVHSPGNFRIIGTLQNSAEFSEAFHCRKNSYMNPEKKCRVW
Experimental for MMP-2: For labeling and detection of MPs using HxBP—Rh, the following technique can be used. Purified MMP-2 can be diluted in buffer 1 (30 ng of enzyme) and mixed with 100 nM HxBP—Rh in the presence or absence of 5 μM GM6001 or TIMP-1 (80 ng). These mixtures can be pre-incubated on ice for 15 min prior to irradiation at 365 nm for 1 hour (on ice) followed by quenching with one volume of standard 2× SDS/PAGE loading buffer (reducing). Kidney and cancer cell proteomes, prepared as known to those having ordinary skill in the art, can be adjusted to 1 mg/ml in 50 mM Tris-HCl buffer (pH 8.0) prior to labeling. […] Labeled samples can be separated by SDS-PAGE, and visualized in-gel with a Hitachi FMBio IIe flatbed scanner (Mirabio). Integrated band intensities can be calculated from several independent labeling reactions, and averaged to provide the level of each enzyme activity in each sample.
With the reference to FIG. 3A, purified MMP-2 (100 ng) or pro-MMP-2 (100 ng) were added to a mouse kidney proteome (15 μL, 1 μg protein/μL) and treated with HxBP—Rh (100 nM) for 15 min prior to photocrosslinking and analysis by SDS-PAGE and in-gel fluorescence scanning.
FIG. 3B illustrates HxBP—Rh labeling of a serial dilution of purified MMP-2 added to a mouse kidney proteome.
Experimental for neprilysin: as §2, §1, §3

As a reminder, the IC50 is the concentration needed to halve the response being measured. Low readings indicate higher potency, high ones lower potency. Turning to `CNC(=O)[C@H](Cc1c[nH]c2ccccc12)NC(=O)[C@@H](CC(=O)NO)CC(C)C` [GM6001], the IC50 on neprilysin stood at 0.017 µM; in series [1], 0.076 µM; in series [2] it was 0.111 µM. Besides, the “Effect on HxBP—Rh labeling of MMP-2 in whole proteome” value at MMP-2 is listed as “blocked”. Moreover, the “Effect on HxBP—Rh labeling of ~80 kDa protein (DPPIII)” value in series [1] (GM6001 5 μM, HxBP—Rh 100 nM, soluble proteome from MCF-7 cells) is recorded as “blocked”.
In the case of “TIMP-1: inhibitor of MMP-2 used to block probe labeling”, the “Effect on HxBP—Rh labeling of MMP-2 in whole proteome” value with MMP-2 is “blocked”.

The values above are taken from patent publication US7348437B2, “Proteomic analysis” (The Scripps Research Institute, priority 2004, dated 2008).
